Series [1] deals with anti-LKM antibodies (LKM-positive sera). Briefly: ELISA test of cytochrome P450 IID6 peptides with human sera. To be noted: for number of patients whose sera recognize the peptide: tested by ELISA and immunoblotting, 15 patients. Format: binding. On the procedure: The peptides are redissolved in a PBS buffer, pH 7.4 and diluted in order to obtain concentrations of 0.1, 0.2, 0.5 and 1 μg/ml; 100 μl per well of each peptide solution are incubated overnight in microtitre plates containing 96 wells (IMMULON2a commercially available ELISAPLATE, Dynatech, Poly-Labo, Paris--FRANCE). The ELISA analysis is then performed as described in GUEGUEN M. et al., (Biochem. Biophys. Res. Commun., 1989, 159, 542), using the various human sera described above. The first antibodies are tested at dilutions ranging from 1/100 to 1/12,800. The alkaline phosphatase-conjugated goat anti-human IgG antibody is used as second antibody at a dilution of 1/1000. The test is developed by adding 100 μl of p-nitrophenyl phosphate at a concentration of 1 mg/ml in a 0.05M NaCO3 buffer, pH 9.8 and 0.001M MgCl2. The results read after incubating for 30 minutes at room temperature are considered positive when they are higher by a factor of 2 compared with the control serum.

The next series deals with anti-LKM autoantibodies. Briefly: Peptide fragments used as diagnostic reagents for autoimmune hepatitis. The class given is binding, human.
Series [2] deals with anti-LKM antibodies (LKM-positive sera). Briefly: Immunoblotting of cytochrome P450 IID6 peptides with LKM-positive sera. The class given is binding, human. On the procedure: (§1) The expression of the fusion proteins from the cDNA constructs is described by STANLEY (Nucleic Acids Research, 1983, 11, 4077). 100 μl culture samples, for each fusion protein, are subjected to electrophoresis on an 8-20% SDS-polyacrylamide gel, transferred onto nitrocellulose and analysed by the immunoblot technique.
(§2) The first antibodies used for the immunoblot method are:
(§3) 1) sera from patients responding positively to the anti-LKM antibodies;
(§4) Depending on the origin of the first antibody, the second antibody is either a peroxydase-goat anti-human IgG conjugate, or a peroxydase-goat anti-mouse IgG conjugate (Biosys), at a dilution of 1/1000.
The different peptides and especially peptides 254-271 (peptide of formula II) , 264-281 and 410-429 (peptide of formula X), are coupled to BSA via their free NH2 -terminal group, using glutaraldehyde (see especially E. HARLOW and D. LANE, 1988, Antibodies, A laboratory manual, Cold Spring Harbor Laboratory).

For series [3] the test system is unchanged. Put plainly: Immunoblot analysis of the fusion proteins P450 IID6/β-gal with LKM-positive sera. Format: binding, human. The following applies: eleven sera tested; FIG. 2. How it is done:
b) Expression and immunoblot analysis of the fusion proteins obtained from the various constructs of pEX-627-LKMHC5 and pEX-627-LKMC1/BamHI.
as §1, §2, §3, §4
Rat liver and human liver microsomes and β-galactosidase, expressed by the plasmid pEX-627 not comprising the P450 DNA insert, are included on the same gels as positive controls and negative control respectively.

Results on five molecules are retold here after patent US5830667A, “Human P450 IID6 cytochrome-derived peptide fragments, anti-peptide fragment antibodies, applications thereof in the diagnosis of autoimmune hepatitis” (Institut National de la Sante et de la Recherche …, priority 1991, dated 1998).

Ends that are not written are not given here.

With “EKPYPEHFLDAQGHFVKPEA [Peptide of formula X, amino acids 410-429 of human cytochrome P450 IID6]”, the “number of patients whose sera recognize the peptide” value (“number” for short) in series [1] was found to be 2 patients/15. Further, the “positive response in patients suffering from autoimmune hepatitis” value with anti-LKM autoantibodies is reported as “positive response in most patients”. For “GMTHMTSRDIGVQGFRI [Peptide of formula IX, Gly-Met-Thr-His-Met-Thr-Ser-Arg-Asp-Ile-Gly-Val-Gln-Gly-Phe-Arg-Ile]”, the “number” value in series [1] is recorded as 1 patients/15. Turning to “LLTEHRMTWDPAQPPRDL [Peptide of formula II, Leu-Leu-Thr-Glu-His-Arg-Met-Thr-Trp-Asp-Pro-Ala-Gln-Pro-Pro-Arg-Asp-Leu]”, the “recognized by LKM-positive sera when tested by ELISA” value in series [1] is “recognized by all the LKM-positivesera”. The “recognized by LKM-positive sera when tested by immunoblotting” value in series [2] was “recognized by all the LKM-positivesera”.

Take “MILHPDVQRRVQQEIDDVIGQVRRPEMGDQA [Peptide of formula Va]”: the “number” value in series [1] was 8 patients/15. For the same molecule, in the series on anti-LKM autoantibodies, the “positive response in patients suffering from autoimmune hepatitis” value is on record as “positive response in most patients”.

B1: LKMC1/BamHI: fusion protein from EcoRI-BamHI fragment of LKMC1, cDNA clone encoding rat cytochrome P450 db2, in plasmid pEX-627 (protein)
chain: MGLLIGDDLWAVVIFTAIFLLLVDLVHRHKFWTAHYPPGPVPLPGLGNLLQVDFENMPYSLYKLRSRYGDVFSLQIAWKPVVVINGLKAVRELLVTYGEDTADRPLLPIYNHLGYGNKSKGVVLAPYGPEWREQRRFSVSTLRDFGVGKKSLEQWVTEEAGHLCDTFAKEAEHPFNPSILLSKAVSNVIASLVYARRFEYEDPFFNRMLKTLKESFGEDTGFMAEVLNAIPILLQIPGLPGKVFPKLNSFIALVDKMLIEHKKSWD
Consider B1, for which the “recognition of fusion protein by LKM-positive sera on the immunoblots” value in series [3] is listed as “None of the sera of the patients tested recognizes”.
